# Measured values: ChEMBL document CHEMBL5649165, “The E3 ligase Cbl-b and TAM receptors regulate cancer metastasis via natural killer cells” (Nature, 2014)
# Active and inactive are the calls of the source. The rule behind the calls is not given here.
# Experiments:
# [1] = test system: B16-F10; test: Antitumor activity against mouse B16-F10 cells xenografted in Cbl-b+/+ mouse assessed as reduction in melanoma metastases in lungs at 0.5 mg/L, po administered for 16 days by haematoxylin and eosin staining based microscope analysis; assay type: functional, organism-based; details: time 16.0 day
# [2] = test system: B16-F10; test: Antitumor activity against mouse B16-F10 cells xenografted in Cbl-b+/- mouse assessed as reduction in melanoma metastases in lungs at 0.5 mg/L, po administered for 16 days by haematoxylin and eosin staining based microscope analysis; assay type: functional, organism-based; details: time 16.0 day
# [3] = test system: B16-F10; test: Antitumor activity against mouse B16-F10 cells xenografted in Cbl-b defective mouse assessed as reduction in melanoma metastases at 0.5 mg/L, po administered for 16 days by haematoxylin and eosin staining based microscope analysis; assay type: functional, organism-based; details: time 16.0 day
# [4] = test system: B16-F10; test: Antitumor activity against mouse B16-F10 cells xenografted in Cbl-b+/+ mouse assessed as coagulation at 0.5 mg/L, po administered for 16 days by coagulometer analysis; assay type: functional, organism-based; details: time 16.0 day
# [5] = test system: B16-F10; test: Antitumor activity against mouse B16-F10 cells xenografted in Cbl-b+/- mouse assessed as coagulation at 0.5 mg/L, po administered for 16 days by coagulometer analysis; assay type: functional, organism-based; details: time 16.0 day
# [6] = test system: RMA-S; test: Cytotoxicity against RMA-S cells overexpressing Rae1 in Cbl-b+/+ mouse by flow cytometry analysis; assay type: functional, cell-based
# [7] = test system: RMA-S; test: Cytotoxicity against RMA-S cells in Cbl-b+/+ mouse by flow cytometry analysis; assay type: functional, cell-based
# [8] = test system: 4T1; test: Anticoagulant activity against mouse 4T1 cells xenografted in Balb/c mouse assessed as prothrombin time at 0.5 mg/L, po administered for 16 days by coagulometer analysis (reference value: 15.10 +/- 1.46 sec); assay type: functional; details: time 16 day
# [9] = target: T1, Tyrosine-protein kinase Mer (Homo sapiens, UniProt Q12866)
# T1 sequence (Q12866 whole entry): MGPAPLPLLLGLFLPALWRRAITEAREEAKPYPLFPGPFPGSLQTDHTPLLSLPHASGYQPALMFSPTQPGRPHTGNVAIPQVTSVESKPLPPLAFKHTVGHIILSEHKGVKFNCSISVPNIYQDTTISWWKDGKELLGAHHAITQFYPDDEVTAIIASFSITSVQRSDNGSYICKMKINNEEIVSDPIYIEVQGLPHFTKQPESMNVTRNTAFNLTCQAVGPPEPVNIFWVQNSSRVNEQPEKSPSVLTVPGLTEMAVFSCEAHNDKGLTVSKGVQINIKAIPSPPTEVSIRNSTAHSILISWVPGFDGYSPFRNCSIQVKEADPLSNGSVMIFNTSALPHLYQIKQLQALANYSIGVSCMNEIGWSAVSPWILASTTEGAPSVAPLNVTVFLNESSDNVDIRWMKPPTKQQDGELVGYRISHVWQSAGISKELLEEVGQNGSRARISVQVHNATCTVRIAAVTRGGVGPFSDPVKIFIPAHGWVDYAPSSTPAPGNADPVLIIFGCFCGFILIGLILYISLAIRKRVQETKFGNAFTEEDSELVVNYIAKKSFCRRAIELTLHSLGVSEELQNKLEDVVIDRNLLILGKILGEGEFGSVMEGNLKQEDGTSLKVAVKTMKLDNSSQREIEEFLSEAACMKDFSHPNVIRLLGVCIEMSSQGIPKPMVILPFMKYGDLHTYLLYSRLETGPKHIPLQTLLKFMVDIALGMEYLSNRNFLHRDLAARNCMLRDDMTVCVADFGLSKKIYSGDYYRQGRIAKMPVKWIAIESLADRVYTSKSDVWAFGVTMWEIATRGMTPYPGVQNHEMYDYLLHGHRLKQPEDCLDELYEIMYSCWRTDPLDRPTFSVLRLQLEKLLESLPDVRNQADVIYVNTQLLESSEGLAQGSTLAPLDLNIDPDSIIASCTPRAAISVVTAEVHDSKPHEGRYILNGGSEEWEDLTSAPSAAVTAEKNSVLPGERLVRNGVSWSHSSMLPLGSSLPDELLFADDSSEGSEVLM
# [10] = target: Hepatocyte growth factor receptor (Homo sapiens, UniProt P08581)
# [11] = target: Aurora kinase B (Homo sapiens, UniProt Q96GD4)
# [12] = target: Tyrosine-protein kinase Lck (Homo sapiens, UniProt P06239)
# [13] = target: T2, Proto-oncogene tyrosine-protein kinase Src (Homo sapiens, UniProt P12931)
# [14] = target: Cyclin-dependent kinase 8 (Homo sapiens, UniProt P49336)
# [15] = target: Tyrosine-protein kinase Fer (Homo sapiens, UniProt P16591); test: biochemical
# [16] = target: T3, Dual specificity mitogen-activated protein kinase kinase 5 (Homo sapiens, UniProt Q13163); test: biochemical
# T3 sequence (Q13163 whole entry): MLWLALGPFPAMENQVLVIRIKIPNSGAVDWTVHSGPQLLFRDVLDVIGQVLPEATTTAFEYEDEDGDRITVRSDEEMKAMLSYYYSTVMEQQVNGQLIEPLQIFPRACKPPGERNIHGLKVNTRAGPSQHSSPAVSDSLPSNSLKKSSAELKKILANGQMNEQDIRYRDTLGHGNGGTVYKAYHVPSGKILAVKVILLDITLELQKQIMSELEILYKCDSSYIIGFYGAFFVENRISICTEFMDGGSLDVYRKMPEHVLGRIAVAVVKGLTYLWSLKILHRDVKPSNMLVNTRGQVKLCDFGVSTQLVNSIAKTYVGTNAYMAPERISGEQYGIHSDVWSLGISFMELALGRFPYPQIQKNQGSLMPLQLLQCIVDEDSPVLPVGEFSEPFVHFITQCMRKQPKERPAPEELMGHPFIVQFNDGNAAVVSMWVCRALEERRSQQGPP
# [17] = target: Tyrosine-protein kinase ABL1 (Homo sapiens, UniProt P00519); test: biochemical
# [18] = target: T2, Proto-oncogene tyrosine-protein kinase Src; test: biochemical
# T2 sequence (P12931 whole entry, looked up): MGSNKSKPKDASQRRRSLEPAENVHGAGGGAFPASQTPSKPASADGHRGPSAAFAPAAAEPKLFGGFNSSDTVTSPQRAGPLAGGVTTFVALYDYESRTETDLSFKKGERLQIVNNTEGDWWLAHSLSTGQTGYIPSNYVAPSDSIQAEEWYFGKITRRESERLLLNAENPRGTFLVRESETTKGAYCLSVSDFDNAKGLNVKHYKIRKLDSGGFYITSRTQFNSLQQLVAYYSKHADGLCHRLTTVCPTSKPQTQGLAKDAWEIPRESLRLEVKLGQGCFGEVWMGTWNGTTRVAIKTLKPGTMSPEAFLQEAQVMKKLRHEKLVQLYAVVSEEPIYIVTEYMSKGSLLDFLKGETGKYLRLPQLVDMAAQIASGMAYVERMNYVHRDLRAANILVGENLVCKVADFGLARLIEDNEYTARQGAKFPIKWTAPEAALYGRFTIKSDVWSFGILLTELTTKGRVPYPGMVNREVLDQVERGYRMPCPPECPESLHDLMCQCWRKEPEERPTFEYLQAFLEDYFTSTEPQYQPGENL
# Sequence of Hepatocyte growth factor receptor (P08581 whole entry): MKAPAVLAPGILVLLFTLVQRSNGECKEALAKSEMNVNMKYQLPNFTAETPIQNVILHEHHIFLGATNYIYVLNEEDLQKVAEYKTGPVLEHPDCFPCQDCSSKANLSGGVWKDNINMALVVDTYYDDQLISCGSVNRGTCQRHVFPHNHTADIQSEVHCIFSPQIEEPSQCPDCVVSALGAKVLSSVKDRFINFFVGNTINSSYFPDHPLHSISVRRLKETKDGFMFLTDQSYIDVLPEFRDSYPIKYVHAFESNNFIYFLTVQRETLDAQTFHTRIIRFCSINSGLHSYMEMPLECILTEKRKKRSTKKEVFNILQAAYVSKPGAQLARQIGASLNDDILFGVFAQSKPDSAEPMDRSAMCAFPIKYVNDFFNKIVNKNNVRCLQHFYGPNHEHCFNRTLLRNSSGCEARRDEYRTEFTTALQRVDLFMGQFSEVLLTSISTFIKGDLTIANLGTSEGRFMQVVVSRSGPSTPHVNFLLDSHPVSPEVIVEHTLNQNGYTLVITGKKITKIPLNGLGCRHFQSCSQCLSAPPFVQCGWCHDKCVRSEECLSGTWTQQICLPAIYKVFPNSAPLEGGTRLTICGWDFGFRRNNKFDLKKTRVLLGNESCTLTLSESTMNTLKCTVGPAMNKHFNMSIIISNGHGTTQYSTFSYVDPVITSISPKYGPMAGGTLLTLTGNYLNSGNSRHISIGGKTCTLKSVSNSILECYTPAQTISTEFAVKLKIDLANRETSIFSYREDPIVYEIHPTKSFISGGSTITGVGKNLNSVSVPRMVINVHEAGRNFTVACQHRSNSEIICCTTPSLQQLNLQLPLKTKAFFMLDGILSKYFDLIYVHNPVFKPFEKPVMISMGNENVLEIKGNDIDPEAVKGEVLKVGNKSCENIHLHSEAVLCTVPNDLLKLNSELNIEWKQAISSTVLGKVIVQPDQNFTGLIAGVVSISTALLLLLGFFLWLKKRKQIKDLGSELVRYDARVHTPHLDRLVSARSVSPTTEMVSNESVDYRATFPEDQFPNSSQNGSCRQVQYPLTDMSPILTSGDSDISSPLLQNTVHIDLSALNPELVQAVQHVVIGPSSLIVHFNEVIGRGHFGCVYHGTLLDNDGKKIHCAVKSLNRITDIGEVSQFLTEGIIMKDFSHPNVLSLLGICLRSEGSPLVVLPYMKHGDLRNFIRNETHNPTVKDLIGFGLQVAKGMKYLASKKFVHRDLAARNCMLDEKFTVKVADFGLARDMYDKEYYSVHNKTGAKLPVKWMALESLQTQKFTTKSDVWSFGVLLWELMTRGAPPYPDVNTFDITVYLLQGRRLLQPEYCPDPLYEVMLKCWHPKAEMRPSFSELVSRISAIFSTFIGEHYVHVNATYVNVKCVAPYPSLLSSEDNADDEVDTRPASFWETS
# Sequence of Aurora kinase B (Q96GD4 whole entry): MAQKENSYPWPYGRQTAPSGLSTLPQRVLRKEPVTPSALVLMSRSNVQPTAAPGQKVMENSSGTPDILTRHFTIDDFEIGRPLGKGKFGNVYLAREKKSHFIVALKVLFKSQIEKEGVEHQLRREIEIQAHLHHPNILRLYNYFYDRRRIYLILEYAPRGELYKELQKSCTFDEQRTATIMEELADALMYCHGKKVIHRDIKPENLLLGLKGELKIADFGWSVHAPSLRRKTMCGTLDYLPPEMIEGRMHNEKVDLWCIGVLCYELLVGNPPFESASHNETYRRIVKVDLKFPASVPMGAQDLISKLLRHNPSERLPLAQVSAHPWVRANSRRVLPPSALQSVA
# Sequence of Tyrosine-protein kinase Fer (P16591 whole entry): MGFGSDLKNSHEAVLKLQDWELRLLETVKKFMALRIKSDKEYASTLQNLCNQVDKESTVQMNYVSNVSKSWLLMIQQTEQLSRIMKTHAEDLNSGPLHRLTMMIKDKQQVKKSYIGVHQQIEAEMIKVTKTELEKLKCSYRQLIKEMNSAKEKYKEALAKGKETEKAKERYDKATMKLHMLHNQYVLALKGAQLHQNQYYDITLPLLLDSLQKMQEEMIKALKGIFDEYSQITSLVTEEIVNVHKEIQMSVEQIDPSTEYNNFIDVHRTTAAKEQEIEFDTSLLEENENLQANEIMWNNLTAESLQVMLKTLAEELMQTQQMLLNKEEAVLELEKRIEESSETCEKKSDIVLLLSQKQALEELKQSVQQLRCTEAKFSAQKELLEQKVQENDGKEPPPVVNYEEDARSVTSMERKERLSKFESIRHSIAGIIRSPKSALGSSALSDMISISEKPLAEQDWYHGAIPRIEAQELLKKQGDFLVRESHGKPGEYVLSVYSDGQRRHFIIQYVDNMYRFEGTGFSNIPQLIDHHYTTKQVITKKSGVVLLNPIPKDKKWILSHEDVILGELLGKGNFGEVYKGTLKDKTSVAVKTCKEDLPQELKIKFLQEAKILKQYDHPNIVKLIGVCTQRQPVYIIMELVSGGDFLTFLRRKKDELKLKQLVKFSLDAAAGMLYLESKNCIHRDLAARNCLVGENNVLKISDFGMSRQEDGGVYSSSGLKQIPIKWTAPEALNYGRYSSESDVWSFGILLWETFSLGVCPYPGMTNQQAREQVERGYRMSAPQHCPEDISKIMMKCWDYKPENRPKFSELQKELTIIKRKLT
# Sequence of Tyrosine-protein kinase ABL1 (P00519 whole entry): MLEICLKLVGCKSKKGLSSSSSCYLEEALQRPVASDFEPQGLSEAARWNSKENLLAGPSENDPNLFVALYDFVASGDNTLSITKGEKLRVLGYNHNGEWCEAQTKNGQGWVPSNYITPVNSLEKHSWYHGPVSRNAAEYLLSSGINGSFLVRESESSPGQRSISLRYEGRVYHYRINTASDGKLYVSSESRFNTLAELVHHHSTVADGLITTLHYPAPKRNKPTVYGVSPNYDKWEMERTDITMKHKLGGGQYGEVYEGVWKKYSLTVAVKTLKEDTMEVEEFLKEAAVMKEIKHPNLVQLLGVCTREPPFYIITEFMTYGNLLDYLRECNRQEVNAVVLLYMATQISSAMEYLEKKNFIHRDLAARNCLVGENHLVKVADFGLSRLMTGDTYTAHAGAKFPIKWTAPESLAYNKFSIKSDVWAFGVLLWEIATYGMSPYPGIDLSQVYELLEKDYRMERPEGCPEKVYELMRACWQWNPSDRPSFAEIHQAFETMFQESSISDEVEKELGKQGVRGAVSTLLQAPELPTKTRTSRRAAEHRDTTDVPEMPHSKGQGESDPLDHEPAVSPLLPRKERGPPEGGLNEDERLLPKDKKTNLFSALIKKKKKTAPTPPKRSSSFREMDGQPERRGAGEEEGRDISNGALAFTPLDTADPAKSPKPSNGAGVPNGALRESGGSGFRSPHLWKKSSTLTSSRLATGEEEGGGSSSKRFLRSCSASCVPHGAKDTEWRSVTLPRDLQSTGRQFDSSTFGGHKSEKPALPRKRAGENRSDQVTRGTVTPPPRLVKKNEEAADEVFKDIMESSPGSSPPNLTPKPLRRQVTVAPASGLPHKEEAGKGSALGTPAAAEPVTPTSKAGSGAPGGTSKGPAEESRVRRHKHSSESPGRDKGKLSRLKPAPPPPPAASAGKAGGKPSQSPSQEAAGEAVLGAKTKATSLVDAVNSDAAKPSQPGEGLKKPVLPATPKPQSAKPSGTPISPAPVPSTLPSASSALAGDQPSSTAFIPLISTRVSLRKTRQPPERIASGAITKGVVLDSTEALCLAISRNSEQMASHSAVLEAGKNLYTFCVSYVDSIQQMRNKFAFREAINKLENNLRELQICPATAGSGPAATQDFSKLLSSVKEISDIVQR
# Sequence of Tyrosine-protein kinase Lck (P06239 whole entry): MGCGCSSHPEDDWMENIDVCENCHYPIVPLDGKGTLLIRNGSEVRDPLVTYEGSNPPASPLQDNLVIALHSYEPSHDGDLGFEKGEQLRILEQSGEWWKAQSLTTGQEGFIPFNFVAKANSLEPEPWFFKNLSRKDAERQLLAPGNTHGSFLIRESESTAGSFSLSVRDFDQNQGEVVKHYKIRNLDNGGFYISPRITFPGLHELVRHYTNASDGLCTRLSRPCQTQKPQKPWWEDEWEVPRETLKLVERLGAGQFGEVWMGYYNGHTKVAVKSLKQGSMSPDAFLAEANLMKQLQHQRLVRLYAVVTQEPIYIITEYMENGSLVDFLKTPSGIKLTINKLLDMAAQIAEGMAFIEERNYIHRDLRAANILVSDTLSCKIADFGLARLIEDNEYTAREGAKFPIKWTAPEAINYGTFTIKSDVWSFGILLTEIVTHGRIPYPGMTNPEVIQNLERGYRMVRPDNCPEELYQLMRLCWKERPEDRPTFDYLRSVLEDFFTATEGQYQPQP
SMILES,Activity [1],Activity [2],Activity [3],Activity [4],Activity [5],Activity [6],Activity [7],PT [8],IC50 [9],IC50 [10],IC50 [11],IC50 [12],IC50 [13],IC50 [14],Kd [15],Kd [16],Kd [17],Kd [18]
CC(=O)CC(c1ccccc1)c1c(O)c2ccccc2oc1=O (stereo not drawn) [WARFARIN],Active,Active,inactive,Active,Active,Active,Active,19.13 s,,,,,,,,,,
CCOc1cn(-c2ccc(F)cc2C)nc1C(=O)Nc1ccc(Oc2ccnc3cc(OC)c(OC)cc23)c(F)c1,,,,,,,,,< 0.005 µM,0.035 µM,0.036 µM,0.051 µM,0.338 µM,3.17 µM,0.107 µM,0.124 µM,0.154 µM,0.217 µM
